We go through eight molecules from patent US12492204B2, “Substituted (7H-pyrrolo[2,3-D]pyrimidin-4-yl) amino compounds useful as JAK 1 inhibitors” (CHEMWERTH, INC., priority 2019, dated 2025).

One series has as its target JAK1 (Homo sapiens (Human), UniProt P23458). Kind of series: JAK1 enzymatic assay. In kind it is biochemical. The following applies: for IC50: ATP 66 μM, Peptide D; for selectivity for JAK1 over JAK2 / selectivity for JAK1 over JAK3: from enzymatic IC50 values; for selectivity for JAK1 over JAK2: JAK1 vs JAK2; for selectivity for JAK1 over JAK3: JAK1 vs JAK3. How it is done: (§1) A. JAK1, JAK2, and JAK3 Enzymatic Assays
(§2) The JAK enzymatic assay used the following reagents.
(§3) Preparation of assay plate. Each sample or reference compound was diluted to 50× the desired highest inhibitor concentration with DMSO. Each sample or reference compound was serially diluted using a 96-well source plate so that there were 10 concentrations for testing. 10 μL from each well of the source plate was transferred to a 96-well intermediate plate. […] 5 μL from each well of the 96-well intermediate plate was transferred to a 384-well plate.
(§4) Kinase reaction. […] The term “max” refers to the DMSO control and “min” stands for low control. Curve-fitting of the data was performed using Xlfit excel add-in version 5.4.0.8 to obtain IC50 values. Equation used was Y=Bottom+(Top−Bottom)/(1+(Log IC50/X)^HillSlope. The peptide substrates used for each kinase, peptide concentration, enzyme concentration, and ATP concentrations are presented in TABLE 2.

For another series, the target named is TYK2 (Homo sapiens (Human), UniProt P29597). Put plainly: TYK2 enzymatic assay. In kind it is biochemical. To be noted: ATP 16 μM, Peptide30.
The target in the next series is JAK2 (Homo sapiens (Human), UniProt O60674). Kind of series: JAK2 enzymatic assay. In kind it is biochemical. To be noted: ATP 6.5 μM, Peptide22. The procedure: as §1, §2
JAK2 (Carna Bio, USA, Inc. Natick, MA, Cat.No. 08-045)
as §3, §4

Another series deals with JAK3 (Homo sapiens (Human), UniProt P52333). Kind of series: JAK3 enzymatic assay. In kind it is biochemical. The following applies: ATP 6.2 μM, Peptide22. The procedure: as §1, §2
JAK3 (Carna Bio, USA, Inc. Natick, MA, Cat.No. 08-046)
as §3, §4

Series [1] is described as follows: Metabolic stability assay (liver microsomes). In kind it is in vitro ADME. The following applies: dog liver microsomes; for Percent Remaining (%) 0 min / Percent Remaining (%) 5 min / Percent Remaining (%) 15 min / Percent Remaining (%) 30 min / Percent Remaining (%) 45 min: mean; for half-lives as compared with the reference compounds: vs Oclacitinib and ketanserin; for CLint scaled at 1 µM / half-life at 1 µM: pooled liver microsomes, pH 7.4. The procedure:
Stock solutions of the sample and reference compounds were prepared in DMSO (10 mM). A spiking solution (500 μM) was prepared for each sample compound and reference compound by diluting 10 μL of the stock solution in ACN (190 μL). A microsomal spiking solution having a microsome concentration of 0.75 mg/mL was prepared for each sample: 1.5 μL of the respective 500 μM spiking solution was mixed with 18.75 μL microsomal solution (pooled liver microsomes, 20 mg/mL in 250 mM sucrose, Corning, Cat. No. 452601, Lot. No. 8176003) and 479.75 μL buffer (0.1 M potassium phosphate buffer, 1.0 mM EDTA, pH 7.4). The microsomal spiking solutions were cooled on ice. Assay plates with wells designated for different time points (0, 5, 15, 30 and 45 minutes) were cooled on ice. 30 μL of each microsomal spiking solution was added to the wells designated for different time points (0, 5, 15, 30 and 45 minutes). 135 μL of ACN containing IS was added to the wells of the plate labelled 0 minutes followed by 15 μL of the NaDPH stock solution (6 mM NaDPH in 0.1 M Potassium Phosphate buffer, 1.0 mM EDTA, pH 7.4). The plates for 5, 15, 30 and 45 minutes were incubated at 37° C. for 5 minutes. At 5 min, […], 30 min, and 45 min, 135 μL of ACN containing IS was added to the wells of the corresponding plates to quench the reaction. The plates were shaken [IKA vibrator, MTS 2/4] for 10 minutes and centrifuged at 5594 G for 15 minutes (Thermo Multifuge×3R). 50 μL of the supernatant from each well was transferred to a 96-well sample plate containing 50 μL of ultrapure water (Millipore, ZMQS50F01) for LC-MS analysis.
A general note: Microsomes from liver hold many membrane-bound enzymes, among them those of drug oxidation.

Sequence of JAK2 (O60674 whole entry): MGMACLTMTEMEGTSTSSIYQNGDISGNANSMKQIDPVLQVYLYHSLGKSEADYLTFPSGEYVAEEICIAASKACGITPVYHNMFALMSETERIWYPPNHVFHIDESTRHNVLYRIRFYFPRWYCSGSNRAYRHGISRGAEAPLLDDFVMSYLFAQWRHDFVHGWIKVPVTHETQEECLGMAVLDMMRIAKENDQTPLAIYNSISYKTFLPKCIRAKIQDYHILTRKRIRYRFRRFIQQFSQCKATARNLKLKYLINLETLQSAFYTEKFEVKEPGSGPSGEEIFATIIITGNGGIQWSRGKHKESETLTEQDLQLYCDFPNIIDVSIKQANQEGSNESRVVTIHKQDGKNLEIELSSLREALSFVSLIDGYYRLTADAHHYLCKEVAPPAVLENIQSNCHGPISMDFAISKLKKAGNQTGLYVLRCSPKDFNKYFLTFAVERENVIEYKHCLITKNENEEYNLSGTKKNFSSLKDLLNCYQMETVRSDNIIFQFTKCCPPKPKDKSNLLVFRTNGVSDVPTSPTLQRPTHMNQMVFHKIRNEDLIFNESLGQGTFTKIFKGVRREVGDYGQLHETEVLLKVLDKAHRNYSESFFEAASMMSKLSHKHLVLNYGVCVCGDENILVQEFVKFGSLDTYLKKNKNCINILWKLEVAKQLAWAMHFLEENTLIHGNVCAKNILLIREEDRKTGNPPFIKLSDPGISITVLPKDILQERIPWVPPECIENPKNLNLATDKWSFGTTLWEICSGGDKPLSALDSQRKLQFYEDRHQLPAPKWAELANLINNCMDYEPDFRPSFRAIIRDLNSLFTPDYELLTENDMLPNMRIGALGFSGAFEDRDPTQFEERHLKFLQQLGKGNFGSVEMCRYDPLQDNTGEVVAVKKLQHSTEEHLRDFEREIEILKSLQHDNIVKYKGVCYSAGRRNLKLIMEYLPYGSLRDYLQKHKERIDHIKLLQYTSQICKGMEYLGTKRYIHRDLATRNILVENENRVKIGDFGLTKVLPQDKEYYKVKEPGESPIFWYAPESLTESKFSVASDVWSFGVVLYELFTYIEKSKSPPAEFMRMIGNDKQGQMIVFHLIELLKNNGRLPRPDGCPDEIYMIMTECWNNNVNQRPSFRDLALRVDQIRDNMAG
Sequence of JAK1 (P23458 whole entry): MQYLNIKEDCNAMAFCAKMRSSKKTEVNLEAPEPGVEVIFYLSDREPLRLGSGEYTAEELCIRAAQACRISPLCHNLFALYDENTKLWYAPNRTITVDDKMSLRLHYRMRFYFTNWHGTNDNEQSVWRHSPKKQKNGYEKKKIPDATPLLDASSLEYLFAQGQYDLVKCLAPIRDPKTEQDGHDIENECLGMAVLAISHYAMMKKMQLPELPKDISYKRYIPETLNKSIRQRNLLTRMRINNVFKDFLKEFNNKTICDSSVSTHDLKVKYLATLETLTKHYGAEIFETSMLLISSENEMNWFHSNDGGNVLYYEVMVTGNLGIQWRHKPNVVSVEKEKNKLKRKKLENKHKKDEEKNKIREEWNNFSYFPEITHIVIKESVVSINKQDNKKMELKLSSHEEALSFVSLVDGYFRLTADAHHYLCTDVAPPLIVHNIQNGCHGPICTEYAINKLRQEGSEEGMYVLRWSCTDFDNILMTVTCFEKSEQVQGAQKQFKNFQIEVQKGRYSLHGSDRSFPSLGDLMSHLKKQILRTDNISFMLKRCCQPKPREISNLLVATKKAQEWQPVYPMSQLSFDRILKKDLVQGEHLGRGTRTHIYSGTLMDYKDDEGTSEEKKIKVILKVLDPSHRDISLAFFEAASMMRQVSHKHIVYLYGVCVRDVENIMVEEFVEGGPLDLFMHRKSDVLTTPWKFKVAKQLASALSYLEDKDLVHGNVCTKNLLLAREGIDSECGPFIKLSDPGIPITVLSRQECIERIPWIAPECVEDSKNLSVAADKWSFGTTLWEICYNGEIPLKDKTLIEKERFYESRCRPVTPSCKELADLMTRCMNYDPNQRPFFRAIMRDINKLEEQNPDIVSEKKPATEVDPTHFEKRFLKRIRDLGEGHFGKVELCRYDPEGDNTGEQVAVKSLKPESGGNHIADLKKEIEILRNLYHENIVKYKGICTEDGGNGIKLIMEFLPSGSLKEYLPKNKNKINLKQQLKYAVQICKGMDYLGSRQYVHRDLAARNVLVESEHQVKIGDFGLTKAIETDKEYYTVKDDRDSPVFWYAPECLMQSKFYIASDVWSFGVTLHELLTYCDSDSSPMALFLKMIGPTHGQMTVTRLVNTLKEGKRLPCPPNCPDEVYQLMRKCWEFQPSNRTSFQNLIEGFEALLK
Sequence of JAK3 (P52333 whole entry): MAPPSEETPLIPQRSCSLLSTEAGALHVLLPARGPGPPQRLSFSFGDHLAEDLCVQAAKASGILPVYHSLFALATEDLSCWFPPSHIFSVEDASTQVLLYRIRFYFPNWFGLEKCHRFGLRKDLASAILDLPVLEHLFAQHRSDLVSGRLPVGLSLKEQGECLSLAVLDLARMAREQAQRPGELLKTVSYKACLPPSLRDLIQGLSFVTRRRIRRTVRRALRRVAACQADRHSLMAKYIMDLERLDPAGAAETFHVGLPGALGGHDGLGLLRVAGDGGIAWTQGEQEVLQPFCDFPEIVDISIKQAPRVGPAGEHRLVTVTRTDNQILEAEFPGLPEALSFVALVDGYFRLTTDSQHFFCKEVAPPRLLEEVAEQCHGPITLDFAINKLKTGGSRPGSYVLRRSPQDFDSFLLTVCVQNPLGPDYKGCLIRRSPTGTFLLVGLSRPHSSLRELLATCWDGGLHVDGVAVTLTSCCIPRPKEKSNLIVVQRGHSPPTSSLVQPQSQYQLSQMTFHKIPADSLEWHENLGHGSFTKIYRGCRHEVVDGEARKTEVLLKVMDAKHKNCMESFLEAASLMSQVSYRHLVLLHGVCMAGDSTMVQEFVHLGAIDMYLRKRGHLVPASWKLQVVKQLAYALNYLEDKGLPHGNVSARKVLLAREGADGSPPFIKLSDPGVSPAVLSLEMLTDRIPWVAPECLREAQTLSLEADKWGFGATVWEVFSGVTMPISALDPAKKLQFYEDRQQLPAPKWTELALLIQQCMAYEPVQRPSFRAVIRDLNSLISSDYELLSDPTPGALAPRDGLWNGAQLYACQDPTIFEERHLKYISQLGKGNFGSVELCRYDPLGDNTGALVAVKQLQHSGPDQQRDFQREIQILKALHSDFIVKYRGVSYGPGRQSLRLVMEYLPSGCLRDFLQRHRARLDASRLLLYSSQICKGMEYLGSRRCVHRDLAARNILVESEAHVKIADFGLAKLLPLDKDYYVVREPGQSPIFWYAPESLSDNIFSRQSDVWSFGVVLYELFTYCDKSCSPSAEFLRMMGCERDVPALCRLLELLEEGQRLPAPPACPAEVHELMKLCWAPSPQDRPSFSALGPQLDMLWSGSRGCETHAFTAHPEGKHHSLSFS
Sequence of TYK2 (P29597 whole entry): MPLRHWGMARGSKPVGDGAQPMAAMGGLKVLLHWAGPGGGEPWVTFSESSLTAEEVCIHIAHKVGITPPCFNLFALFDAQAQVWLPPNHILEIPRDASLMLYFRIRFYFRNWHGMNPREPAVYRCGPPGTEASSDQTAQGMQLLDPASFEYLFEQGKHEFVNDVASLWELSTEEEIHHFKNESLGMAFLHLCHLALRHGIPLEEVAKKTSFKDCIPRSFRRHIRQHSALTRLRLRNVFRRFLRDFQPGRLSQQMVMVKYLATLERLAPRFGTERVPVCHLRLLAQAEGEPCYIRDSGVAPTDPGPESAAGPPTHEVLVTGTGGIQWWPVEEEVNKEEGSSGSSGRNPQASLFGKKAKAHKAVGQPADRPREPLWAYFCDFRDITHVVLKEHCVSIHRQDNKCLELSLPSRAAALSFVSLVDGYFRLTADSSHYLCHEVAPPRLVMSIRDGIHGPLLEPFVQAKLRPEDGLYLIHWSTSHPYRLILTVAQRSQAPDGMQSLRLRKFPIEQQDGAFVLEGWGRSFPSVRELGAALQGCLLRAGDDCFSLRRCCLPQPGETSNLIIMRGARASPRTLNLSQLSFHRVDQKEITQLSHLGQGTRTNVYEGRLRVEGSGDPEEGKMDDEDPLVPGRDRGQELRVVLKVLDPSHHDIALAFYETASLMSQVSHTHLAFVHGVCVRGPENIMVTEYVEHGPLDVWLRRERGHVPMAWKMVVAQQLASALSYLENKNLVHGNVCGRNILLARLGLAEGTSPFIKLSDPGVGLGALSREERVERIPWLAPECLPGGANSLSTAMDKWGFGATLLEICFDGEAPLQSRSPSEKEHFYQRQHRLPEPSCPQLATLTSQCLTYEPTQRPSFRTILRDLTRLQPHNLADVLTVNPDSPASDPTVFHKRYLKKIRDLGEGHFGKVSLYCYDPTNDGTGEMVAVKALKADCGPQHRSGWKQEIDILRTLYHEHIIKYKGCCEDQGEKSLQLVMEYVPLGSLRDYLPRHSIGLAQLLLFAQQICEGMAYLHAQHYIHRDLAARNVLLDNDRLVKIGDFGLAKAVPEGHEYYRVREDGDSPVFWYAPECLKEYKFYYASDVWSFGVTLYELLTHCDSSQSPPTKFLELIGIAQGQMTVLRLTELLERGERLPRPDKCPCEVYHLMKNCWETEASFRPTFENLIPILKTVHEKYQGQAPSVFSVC

Consider `CC(C)NC(=O)N[C@H]1CC[C@H](N(C)c2ncnc3[nH]ccc23)CC1` [Compound 4, 1-isopropyl-3-((1r,4r)-4-(methyl(7H-pyrrolo[2,3-d]pyrimidin-4-yl)amino)cyclohexyl)urea], for which the IC50 – broadly, the concentration that gives 50% inhibition – against JAK1 was 0.04 µM; against TYK2, 2.71 µM; against JAK2, 0.134 µM; against JAK3, 0.615 µM. In addition, the “selectivity for JAK1 over JAK2” value at JAK1 is 3.35 fold. In addition, the “selectivity for JAK1 over JAK3” value on JAK1 is listed as 15.4 fold.
In the case of `CCCNC(=O)N[C@H]1CC[C@@H](N(C)c2ncnc3[nH]ccc23)CC1` [Compound 3, 1-propyl-3-((1r,4r)-4-(methyl(7H-pyrrolo[2,3-d]pyrimidin-4-yl)amino)cyclohexyl)urea], on JAK1, it took 0.019 µM to reach half-maximal inhibition (IC50), the “selectivity for JAK1 over JAK2” value worked out at 3.7 fold and the “selectivity for JAK1 over JAK3” value is given as 10.9 fold. Besides, at TYK2, the IC50 was determined as 1.51 µM. Besides, in series [1], the “Percent Remaining (%) 0 min” value was found to be 100.00%, the “Percent Remaining (%) 5 min” value was 94.76%, the “Percent Remaining (%) 15 min” value is recorded as 86.94% and the “Percent Remaining (%) 30 min” value was 75.53%. In addition, in series [1], the “Percent Remaining (%) 45 min” value was 73.67%; the “half-lives as compared with the reference compounds” value is listed as “dramatically improved half-lives”; the CLint scaled (as a rule, the capacity of the preparation to metabolise the compound, expressed as a volume cleared per time) at 1 µM was determined as 35.4 mL/min/kg; the half-life (commonly the time needed for the level to fall by half in the phase considered) at 1 µM is 1.63 h. The same molecule came in with an IC50 on JAK2 of 0.07 µM. At JAK3, this molecule gave an IC50 of 0.207 µM.
Turning to `CNS(=O)(=O)C[C@H]1CC[C@H](N(C)c2ncnc3[nH]ccc23)CC1` [Oclacitinib, reference compound], at JAK1, the half-maximal inhibitory concentration (IC50) was found to be 0.0066 µM, the “selectivity for JAK1 over JAK2” value was found to be 45% and the “selectivity for JAK1 over JAK3” value is given as 10.6 fold. The IC50 at TYK2 was determined as 0.077 µM. In addition, in series [1], the “Percent Remaining (%) 0 min” value was 100.00%, the “Percent Remaining (%) 5 min” value was 94.12%, the “Percent Remaining (%) 15 min” value was 82.56% and the “Percent Remaining (%) 30 min” value turned out to be 68.65%. In series [1], the “Percent Remaining (%) 45 min” value was found to be 62.97%, the CLint scaled at 1 µM was found to be 53 mL/min/kg and the half-life at 1 µM amounted to 1.09 h. Besides, the midpoint of inhibition on JAK2, the IC50, lay at 0.0093 µM. The molecule also came in with an IC50 at JAK3 of 0.07 µM.
In the case of `O=C(c1ccc(F)cc1)C1CCN(CCn2c(=O)[nH]c3ccccc3c2=O)CC1` [ketanserin, reference compound], in series [1], the “Percent Remaining (%) 0 min” value came to 100.00%, the “Percent Remaining (%) 5 min” value is listed as 82.91%, the “Percent Remaining (%) 15 min” value worked out at 62.01% and the “Percent Remaining (%) 30 min” value stood at 42.37%. In addition, in series [1], the “Percent Remaining (%) 45 min” value is reported as 36.16%, the CLint scaled at 1 µM is 114 mL/min/kg and the half-life at 1 µM turned out to be 0.505 h.
Consider `CCNC(=O)N[C@H]1CC[C@H](N(C)c2ncnc3[nH]ccc23)CC1` [Compound 2, 1-ethyl-3-((1r,4r)-4-(methyl(7H-pyrrolo[2,3-d]pyrimidin-4-yl)amino)cyclohexyl)urea], for which the IC50 on JAK1 came to 0.043 µM; at TYK2 it was 1.79 µM; against JAK2 it was 0.126 µM; on JAK3 it was 0.447 µM. The “selectivity for JAK1 over JAK2” value on JAK1 worked out at 2.9 fold. Moreover, the “selectivity for JAK1 over JAK3” value on JAK1 came to 10.4 fold.
Regarding `CN(c1ncnc2[nH]ccc12)[C@H]1CC[C@H](NC(=O)NCC#N)CC1` [Compound 5, 1-(cyanomethyl)-3-((1r,4r)-4-(methyl(7H-pyrrolo[2,3-d]pyrimidin-4-yl)amino)cyclohexyl)urea], on JAK1, it took 0.0075 µM to reach half-maximal inhibition (IC50), the “selectivity for JAK1 over JAK2” value stood at 2.4 fold and the “selectivity for JAK1 over JAK3” value came to 3.5 fold. This molecule yielded an IC50 at TYK2 of 0.415 µM. In addition, in series [1], the “Percent Remaining (%) 0 min” value was found to be 100.00%, the “Percent Remaining (%) 5 min” value is on record as 100.66%, the “Percent Remaining (%) 15 min” value is 95.39% and the “Percent Remaining (%) 30 min” value was 87.57%. Further, in series [1], the “Percent Remaining (%) 45 min” value worked out at 86.91%, the “half-lives as compared with the reference compounds” value is recorded as “dramatically improved half-lives”, the CLint scaled at 1 µM was 18.2 mL/min/kg and the half-life at 1 µM worked out at 3.16 h. The IC50 against JAK2 came out at 0.018 µM. The IC50 against JAK3 amounted to 0.026 µM.
For `CN(c1ncnc2[nH]ccc12)[C@H]1CC[C@H](NC(=O)NCC(F)(F)F)CC1` [Compound 6, 1-((1r,4r)-4-(methyl(7H-pyrrolo[2,3-d]pyrimidin-4-yl)amino)cyclohexyl)-3-(2,2,2-trifluoroethyl)urea], at JAK1, the IC50 came out at 0.0023 µM, the “selectivity for JAK1 over JAK2” value stood at 6 fold and the “selectivity for JAK1 over JAK3” value was determined as 18.3 fold. The molecule also showed an IC50 against TYK2 of 0.335 µM. Also, in series [1], the “Percent Remaining (%) 0 min” value is 100.00%, the “Percent Remaining (%) 5 min” value is on record as 93.91%, the “Percent Remaining (%) 15 min” value was 85.39% and the “Percent Remaining (%) 30 min” value came out at 76.25%. Also, in series [1], the “Percent Remaining (%) 45 min” value stood at 71.95%, the “half-lives as compared with the reference compounds” value is listed as “dramatically improved half-lives”, the CLint scaled at 1 µM came out at 36.5 mL/min/kg and the half-life at 1 µM stood at 1.58 h. Besides, the IC50 at JAK2 worked out at 0.014 µM. Besides, the IC50 against JAK3 amounted to 0.042 µM.
As for `CNC(=O)N[C@H]1CC[C@H](N(C)c2ncnc3[nH]ccc23)CC1` [Compound 1, 1-methyl-3-((1r,4r)-4-(methyl(7H-pyrrolo[2,3-d]pyrimidin-4-yl)amino)cyclohexyl)urea], the IC50 worked out at 0.156 µM against JAK1, 3.82 µM against TYK2, 0.292 µM on JAK2 and 0.618 µM at JAK3. Further, the “selectivity for JAK1 over JAK2” value at JAK1 worked out at 87%. Moreover, the “selectivity for JAK1 over JAK3” value at JAK1 is 3.96 fold.
